Test: MAESTRO-NASH: thyroid hormones at week 52
Format: in vivo, human

## CC(C)c1cc(Oc2c(Cl)cc(-n3nc(C#N)c(=O)[nH]c3=O)cc2Cl)n[nH]c1=O [Resmetirom, 2-(3,5-dichloro-4-((5-isopropyl-6-oxo-1,6-dihydropyridazin-3-yl)oxy)phenyl)-3,5-dioxo-2,3,4,5-tetrahydro-1,2,4-triazine-6-carbonitrile]
80 mg, Week 52
  FT3 (not on thyroxine), LS mean CFB: -0.01 ng/L
  FT3 (not on thyroxine), LS mean difference from PBO (CFB): 0.01 ng/L
  FT3 (thyroxine-treated), LS mean CFB: 0.04 ng/L
  FT3 (thyroxine-treated), LS mean difference from PBO (CFB): 0.05 ng/L
  FT3, LS mean CFB: -0.01 ng/L
  FT3, LS mean difference from PBO (CFB): 0.02 ng/L
  FT3/rT3 (not on thyroxine), LS mean CFB: 0.06
  FT3/rT3 (not on thyroxine), LS mean difference from PBO (CFB): 0.06
  FT3/rT3 (thyroxine-treated), LS mean CFB: 0.05
  FT3/rT3 (thyroxine-treated), LS mean difference from PBO (CFB): 0.06
  FT3/rT3, LS mean difference from PBO (CFB): 0.06
  FT4 (not on thyroxine), LS mean % CFB: −13.8%
  FT4 (not on thyroxine), LS mean CFB: 0.16 ng/dL
  FT4 (not on thyroxine), LS mean difference from PBO (% CFB): −16.3%
  FT4 (not on thyroxine), LS mean difference from PBO (CFB): -0.18 ng/dL
  FT4 (thyroxine-treated), LS mean % CFB: −14.0%
  FT4 (thyroxine-treated), LS mean CFB: 0.18 ng/dL
  FT4 (thyroxine-treated), LS mean difference from PBO (% CFB): −17.9%
  FT4 (thyroxine-treated), LS mean difference from PBO (CFB): -0.21 ng/dL
  FT4, LS mean % CFB: 13.9%
  FT4, LS mean CFB: -0.17 ng/dL
  FT4, LS mean difference from PBO (% CFB): −16.6%
  FT4, LS mean difference from PBO (CFB): -0.19 ng/dL
  TBG (not on thyroxine), LS mean CFB: 0.19 mg/L
  TBG (not on thyroxine), LS mean difference from PBO (CFB): -1.8 mg/L
  TBG (thyroxine-treated), LS mean CFB: 1.1 mg/L
  TBG (thyroxine-treated), LS mean difference from PBO (CFB): -2.6 mg/L
  TBG, LS mean CFB: -0.32 mg/L
  TBG, LS mean difference from PBO (CFB): -1.9 mg/L
  TSH (not on thyroxine), LS mean CFB: −0.23 mIU/L
  TSH (not on thyroxine), LS mean difference from PBO (CFB): −0.15 mIU/L
  TSH (thyroxine-treated), LS mean CFB: −0.63 mIU/L
  TSH (thyroxine-treated), LS mean difference from PBO (CFB): −0.41 mIU/L
  TSH, LS mean CFB: −0.28 mIU/L
  TSH, LS mean difference from PBO (CFB): −0.18 mIU/L
  rT3 (not on thyroxine), LS mean CFB: -4.5 ng/dL
  rT3 (not on thyroxine), LS mean difference from PBO (CFB): -4.5 ng/dL
  rT3 (thyroxine-treated), LS mean CFB: -5.1 ng/dL
  rT3 (thyroxine-treated), LS mean difference from PBO (CFB): 5.1 ng/dL
  rT3, LS mean CFB: -4.6 ng/dL
  rT3, LS mean difference from PBO (CFB): -4.73 ng/dL
80 mg, week 52
  rT3, LS mean CFB: 4.6 ng/dL
  rT3, LS mean CFB difference from PBO: -4.7 ng/dL
100 mg, Week 52
  FT3 (not on thyroxine), LS mean CFB: -0.08 ng/L
  FT3 (not on thyroxine), LS mean difference from PBO (CFB): -0.06 ng/L
  FT3 (thyroxine-treated), LS mean CFB: -0.03 ng/L
  FT3 (thyroxine-treated), LS mean difference from PBO (CFB): 0.01 ng/L
  FT3, LS mean CFB: 0.08 ng/L
  FT3, LS mean difference from PBO (CFB): -0.05 ng/L
  FT3/rT3 (not on thyroxine), LS mean CFB: 0.06
  FT3/rT3 (not on thyroxine), LS mean difference from PBO (CFB): 0.07
  FT3/rT3 (thyroxine-treated), LS mean CFB: 0.06
  FT3/rT3 (thyroxine-treated), LS mean difference from PBO (CFB): 0.06
  FT3/rT3, LS mean difference from PBO (CFB): 0.07
  FT4 (not on thyroxine), LS mean % CFB: −17.6%
  FT4 (not on thyroxine), LS mean CFB: -0.21 ng/dL
  FT4 (not on thyroxine), LS mean difference from PBO (% CFB): 20.0%
  FT4 (not on thyroxine), LS mean difference from PBO (CFB): -0.23 ng/dL
  FT4 (thyroxine-treated), LS mean % CFB: 20.6%
  FT4 (thyroxine-treated), LS mean CFB: -0.26 ng/dL
  FT4 (thyroxine-treated), LS mean difference from PBO (% CFB): −24.4%
  FT4 (thyroxine-treated), LS mean difference from PBO (CFB): 0.29 ng/dL
  FT4, LS mean % CFB: −18.1%
  FT4, LS mean CFB: -0.22 ng/dL
  FT4, LS mean difference from PBO (% CFB): 20.7%
  FT4, LS mean difference from PBO (CFB): -0.24 ng/dL
  TBG (not on thyroxine), LS mean CFB: 0.21 mg/L
  TBG (not on thyroxine), LS mean difference from PBO (CFB): 1.8 mg/L
  TBG (thyroxine-treated), LS mean CFB: 3.1 mg/L
  TBG (thyroxine-treated), LS mean difference from PBO (CFB): 4.6 mg/L
  TBG, LS mean CFB: -0.60 mg/L
  TBG, LS mean difference from PBO (CFB): -2.2 mg/L
  TSH (not on thyroxine), LS mean CFB: −0.20 mIU/L
  TSH (not on thyroxine), LS mean difference from PBO (CFB): −0.12 mIU/L
  TSH (thyroxine-treated), LS mean CFB: −0.13 mIU/L
  TSH (thyroxine-treated), LS mean difference from PBO (CFB): 0.09 mIU/L
  TSH, LS mean CFB: −0.20 mIU/L
  TSH, LS mean difference from PBO (CFB): 0.10 mIU/L
  rT3 (not on thyroxine), LS mean CFB: 4.9 ng/dL
  rT3 (not on thyroxine), LS mean difference from PBO (CFB): -5.1 ng/dL
  rT3 (thyroxine-treated), LS mean CFB: -6.3 ng/dL
  rT3 (thyroxine-treated), LS mean difference from PBO (CFB): -6.3 ng/dL
  rT3, LS mean CFB: 5.1 ng/dL
  rT3, LS mean difference from PBO (CFB): -5.2 ng/dL
100 mg, week 52
  rT3, LS mean CFB: 5.1 ng/dL
  rT3, LS mean CFB difference from PBO: 5.2 ng/dL
In vivo
  effect on levels of thyrotropin or free triiodothyronine (FT3): no effect
Independent of thyroxine-replacement status
  reduction of prohormone free T4 (FT4) levels: 16 to 19%

— patent publication US12377104B1, “Methods for treating a fatty liver disease” (Madrigal Pharmaceuticals, Inc., priority 2024, dated 2025)
